Results as given in patent publication US4920103A, “Modifications of mycinose and 3-O-demethylmycinose in tylosin-type macrolides” (Eli Lilly and Company, priority 1986, dated 1990).
Values after ≈ are worked out from the molar mass of the structure shown. Read-outs that look alike come from different tables or passages of the source.

What was measured:
Assay type in all cases: cell-based
[1] = test system: Staphylococcus aureus X1.1; assay: MIC, standard agar-dilution assay, S. aureus X1.1
Experimental: (§1) The MIC's in Table II were determined by standard agar-dilution assays. The MIC's in Table III were obtained using conventional broth-dilution microtiter tests.

[2] = test system: Staphylococcus aureus V41; assay: MIC, standard agar-dilution assay, S. aureus V41; conditions: Staphylococcus aureus, V41
Experimental: as §1

[3] = test system: Staphylococcus aureus X400; assay: MIC, standard agar-dilution assay, S. aureus X400
Experimental: as §1

[4] = test system: Staphylococcus aureus S13E; assay: MIC, standard agar-dilution assay, S. aureus S13E
Experimental: as §1

[5] = test system: Staphylococcus epidermidis EPI1; assay: MIC, standard agar-dilution assay, S. epidermidis EPI1
Experimental: as §1

[6] = test system: Staphylococcus epidermidis 222; assay: MIC, standard agar-dilution assay, S. epidermidis 222
Experimental: as §1

[7] = test system: Streptococcus pyogenes C203; assay: MIC, standard agar-dilution assay, S. pyogenes C203; conditions: Streptococcus pyogenes, C203
Experimental: as §1

[8] = test system: Streptococcus pneumoniae Park I; assay: MIC, standard agar-dilution assay, S. pneumoniae Park I; conditions: Streptococcus pneumoniae
Experimental: as §1

[9] = test system: Streptococcus Group D X66; assay: MIC, standard agar-dilution assay, Streptococcus Group D X66
Experimental: as §1

[10] = test system: Streptococcus Group D 2041; assay: MIC, standard agar-dilution assay, Streptococcus Group D 2041; conditions: GROUPD2041
Experimental: as §1

[11] = test system: Haemophilus influenzae C.L.; assay: MIC, standard agar-dilution assay, H. influenzae C.L.
Experimental: as §1

[12] = test system: Haemophilus influenzae 76; assay: MIC, standard agar-dilution assay, H. influenzae 76
Experimental: as §1

[13] = test system: Escherichia coli EC14; assay: MIC, standard agar-dilution assay, E. coli EC14; conditions: agar-dilution, read-out: MIC
Experimental: as §1

[14] = test system: Klebsiella pneumoniae X68; assay: MIC, standard agar-dilution assay, K. pneumoniae X68; conditions: agar-dilution, read-out: MIC
Experimental: as §1

[15] = test system: Pseudomonas aeruginosa X239; assay: MIC, standard agar-dilution assay, P. aeruginosa X239; conditions: agar-dilution, read-out: MIC
Experimental: as §1

[16] = agar-dilution, ampicillin-sensitive strain, read-out: MIC
[17] = agar-dilution, ampicillin-resistant strain, read-out: MIC

SMILES | MIC [1] [µg/mL] | MIC [2] [µg/mL] | MIC [3] [µg/mL] | MIC [4] [µg/mL] | MIC [5] [µg/mL] | MIC [6] [µg/mL] | MIC ([7]; agar-dilution, read-out: MIC) [µg/mL] | MIC [8] [µg/mL] | MIC [9] [µg/mL] | MIC ([10]; agar-dilution, read-out: MIC) [µg/mL] | MIC [11, 16] [µg/mL] | MIC [12, 17] [µg/mL] | MIC [13] [µg/mL] | MIC [14] [µg/mL] | MIC [15] [µg/mL] | MIC ([9]; agar-dilution, read-out: MIC) [µg/mL] | MIC [7] [µg/mL] | MIC [10] [µg/mL] | MIC [11] [µg/mL] | MIC [12] [µg/mL]
CCC1OC(=O)CC(O)C(C)C(OC2OC(C)C(O)C(N(C)C)C2O)C(CCOc2ccccc2)CC(C)C(=O)C=CC(C)=CC1COC1OC(C)C(NC(C)=O)C(OC)C1OC (stereo not shown) [Compound 37, 4"-Acetylamino-4"-deoxy-20-DH-20-O-phenyl-desmycosin] | 8 (≈ 8.98 µM) | 4 (≈ 4.49 µM) | 4 (≈ 4.49 µM) | 4 (≈ 4.49 µM) | 8 (≈ 8.98 µM) | 8 (≈ 8.98 µM) | 2 (≈ 2.24 µM) | 4 (≈ 4.49 µM) | 64 (≈ 71.8 µM) | 128 (≈ 144 µM) | > 128 | > 128 | > 128 | > 128 | > 128 | – | – | – | – | –
CCC1OC(=O)CC(O)C(C)C(OC2OC(C)C(O)C(N(C)C)C2O)C(CCOc2ccccc2)CC(C)C(=O)C=CC(C)=CC1COC1OC(C)/C(=N/OC)C(OC)C1OC (stereo not shown) [Compound 7, 4"-O-Methoxyimino-20-DH-20-O-phenyl-desmycosin] | 1 (≈ 1.14 µM) | 1 (≈ 1.14 µM) | 1 (≈ 1.14 µM) | 1 (≈ 1.14 µM) | 1 (≈ 1.14 µM) | 1 (≈ 1.14 µM) | 2 (≈ 2.28 µM) | 0.5 (≈ 0.57 µM) | – | 4 (≈ 4.56 µM) | > 128 | > 128 | > 128 | > 128 | > 128 | 2 (≈ 2.28 µM) | – | – | – | –
CCC1OC(=O)CC(O)C(C)C(OC2OC(C)C(O)C(N(C)C)C2O)C(CCOc2ccccc2)CC(C)C(=O)C=CC(C)=CC1COC1OC(C)C(NC(C)C)C(OC)C1OC (stereo not shown) [Compound 35, 4"-Deoxy-20-DH-4"-isopropylamino-20-O-phenyldesmycosin] | 8 (≈ 8.98 µM) | 16 (≈ 18 µM) | 16 (≈ 18 µM) | 16 (≈ 18 µM) | 8 (≈ 8.98 µM) | 8 (≈ 8.98 µM) | – | – | 64 (≈ 71.8 µM) | 128 (≈ 144 µM) | 128 (≈ 144 µM) | 128 (≈ 144 µM) | > 128 | > 128 | > 128 | – | – | – | – | –
CCC1OC(=O)CC(O)C(C)C(OC2OC(C)C(O)C(N(C)C)C2O)C(CCOc2ccccc2)CC(C)C(=O)C=CC(C)=CC1COC1OC(C)C=C(OC)C1OC (stereo not shown) [Compound 54, 3",4"-Anhydro-20-DH-20-O-phenyl-desmycosin] | 1 (≈ 1.2 µM) | 1 (≈ 1.2 µM) | 0.5 (≈ 0.601 µM) | 1 (≈ 1.2 µM) | 1 (≈ 1.2 µM) | 0.25 (≈ 0.3 µM) | – | 4 (≈ 4.81 µM) | 8 (≈ 9.61 µM) | – | 128 (≈ 154 µM) | 128 (≈ 154 µM) | > 128 | > 128 | > 128 | – | 4 (≈ 4.81 µM) | 8 (≈ 9.61 µM) | – | –
CCC1OC(=O)CC(O)C(C)C(OC2OC(C)C(O)C(N(C)C)C2O)C(CCOc2ccccc2)CC(C)C(=O)C=CC(C)=CC1COC1OC(C)C(I)C(OC)C1OC (stereo not shown) [Compound 19, 4"-Deoxy-4"-iodo-20-DH-20-O-phenyl-desmycosin] | 8 (≈ 8.33 µM) | 8 (≈ 8.33 µM) | 8 (≈ 8.33 µM) | 8 (≈ 8.33 µM) | 8 (≈ 8.33 µM) | 8 (≈ 8.33 µM) | – | 8 (≈ 8.33 µM) | 8 (≈ 8.33 µM) | – | > 128 | > 128 | > 128 | > 128 | > 128 | – | 8 (≈ 8.33 µM) | 8 (≈ 8.33 µM) | – | –
CCC1OC(=O)CC(O)C(C)C(OC2OC(C)C(O)C(N(C)C)C2O)C(CCOc2ccccc2)CC(C)C(=O)C=CC(C)=CC1COC1OC(C)C(NCC#N)C(OC)C1OC (stereo not shown) [Compound 27, 4"-(Cyanomethyl)amino-4"-deoxy-20-DH-20-O-phenyl-desmycosin] | 0.5 (≈ 0.563 µM) | 1 (≈ 1.13 µM) | 0.5 (≈ 0.563 µM) | 0.5 (≈ 0.563 µM) | 0.5 (≈ 0.563 µM) | 0.5 (≈ 0.563 µM) | – | – | 8 (≈ 9.01 µM) | – | – | – | > 128 | > 128 | > 128 | – | – | 16 (≈ 18 µM) | 4 (≈ 4.5 µM) | 8 (≈ 9.01 µM)
CCC1OC(=O)CC(O)C(C)C(OC2OC(C)C(O)C(N(C)C)C2O)C(CCOc2ccccc2)CC(C)C(=O)C=CC(C)=CC1COC1OC(C)C(n2cccc2)C(OC)C1OC (stereo not shown) [Compound 46, 4"-Deoxy-20-DH-20-O-phenyl-4"-pyrrol-1-yl-desmycosin] | 8 (≈ 8.9 µM) | 8 (≈ 8.9 µM) | 8 (≈ 8.9 µM) | 8 (≈ 8.9 µM) | 8 (≈ 8.9 µM) | 4 (≈ 4.45 µM) | – | 2 (≈ 2.22 µM) | 32 (≈ 35.6 µM) | – | > 128 | > 128 | > 128 | – | > 128 | – | 16 (≈ 17.8 µM) | 64 (≈ 71.2 µM) | – | –
